Results from patent EP0375451A2, “Compounds having a renin-inhibiting activity” (BEECHAM GROUP PLC, priority 1988, dated 1990).
Where a name gives a salt, the structure may show the parent alone.

The compounds below were run against T1, human renin (Homo sapiens, UniProt P00797) (assay: In vitro human renin inhibition (renin activity in human plasma, angiotensin I radioimmunoassay)). Settings: not given.
T1 construct: from tissue; host or cells: human plasma from blood of healthy volunteers
T1 sequence (P00797 67-406): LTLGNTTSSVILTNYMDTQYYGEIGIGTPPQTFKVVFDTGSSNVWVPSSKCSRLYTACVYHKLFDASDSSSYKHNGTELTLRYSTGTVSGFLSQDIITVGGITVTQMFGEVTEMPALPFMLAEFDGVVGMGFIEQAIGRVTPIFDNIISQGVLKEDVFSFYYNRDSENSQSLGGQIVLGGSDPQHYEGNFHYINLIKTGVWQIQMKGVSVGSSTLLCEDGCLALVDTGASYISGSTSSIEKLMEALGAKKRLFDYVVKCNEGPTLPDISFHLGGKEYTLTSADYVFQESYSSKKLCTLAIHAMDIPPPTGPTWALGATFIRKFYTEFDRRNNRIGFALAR
Format: biochemical
Description: In vitro human renin inhibition
Renin inhibitory activity was estimated as the percentage change in renin activity in human plasma in the presence and absence of compound. The source of plasma was blood taken from healthy volunteers. Renin activity was defined by the difference in angiotensin I levels between two halves of a sample, one incubated at 37^o and the other at 4^o for 2h. Angiotensin I levels were measured using a ¹²⁵I- angiotensin I radioimmunoassay kit (NEN/DuPont, Stevenage). Results were calculated as the mean of at least two, duplicate determinations and IC₅₀ values were calculated by linear regression analysis of at least three concentrations of compound.

| Compound | IC50 |
| --- | --- |
| CC(C)C[C@H](NC(=O)[C@H](Cc1ccccc1)NC(=O)CCn1c(=O)[nH]c2ccccc21)C(=O)N[C@@H](CC1CCCCC1)[C@@H](O)CC(=O)NCCCn1ccnc1 [Example E41, (2,3-Dihydro-2-oxo-1H-benzimidazole-1-propanoyl)-Phe-Leu-ACHPA 3-(1-imidazolyl)propylamide .0.5CHCl₃] | 43 nM |
| CC(=O)NCCNC(=O)C[C@H](O)[C@H](CC1CCCCC1)NC(=O)[C@H](CC(C)C)NC(=O)[C@H](Cc1ccccc1)NC(=O)CC1CS(=O)(=O)c2ccccc21 (stereo partly shown) [Example E6] | 87 nM |

Same assay, conditions: human plasma from healthy volunteers; angiotensin I difference between 37° and 4° incubation for 2h; linear regression of at least three concentrations; read-out: IC₅₀

| Compound | IC50 |
| --- | --- |
| CC(C)C[C@H](NC(=O)[C@H](Cc1ccccc1)NC(=O)CC1COc2ccc(CNCC(=O)O)cc21)C(=O)N[C@@H](CC1CCCCC1)[C@@H](O)CC(=O)NCCCn1ccnc1 (stereo partly drawn) [Example E44, (5- (Carboxymethylaminomethyl)-2,3-dihydrobenzofuran-3-yl)acetyl-Phe-Leu-ACHPA 3-(1-imidazolyl)propylamide .3(CF₃CO₂H)] | 48 nM |
| CC(C)C[C@H](NC(=O)[C@H](Cc1ccccc1)NC(=O)CC1CS(=O)(=O)c2ccccc21)C(=O)N[C@@H](CC1CCCCC1)[C@@H](O)CC(=O)NCCCCn1ccnc1 (stereo partly drawn) [Example E14, (2,3-Dihydro-1,1-dioxobenzothiophene-3-yl)acetyl-Phe-Leu-ACHPA 4-(1-imidazolyl)butylamide .HCl.2H₂O] | 37 nM |
| CC(C)C[C@H](NC(=O)[C@H](Cc1ccccc1)NC(=O)CC1CS(=O)(=O)c2ccccc21)C(=O)N[C@@H](CC1CCCCC1)[C@@H](O)CC(=O)NCCN1CCN(C)CC1 (stereo partly drawn) [Example E22, (2,3-Dihydro-1,1-dioxobenzothiophene-3-yl)acetyl-Phe-Leu-ACHPA 2-(4-methylpiperazin-1-yl)ethylamide .2.5H₂O] | 95 nM |
| CC(C)C[C@H](NC(=O)[C@H](Cc1ccccc1)NC(=O)CC1CS(=O)(=O)c2ccccc21)C(=O)N[C@@H](CC1CCCCC1)[C@@H](O)CC(=O)NCCCCC(=O)O (stereo partly drawn) [Example E19, (2,3-Dihydro-1,1-dioxobenzothiophene-3-yl)acetyl-Phe-Leu-ACHPA-NH(CH₂)₄CO₂H] | 45 nM |

Now from value to compound:

| IC50 | Compound |
| --- | --- |
| 44 nM | CC(C)C[C@H](NC(=O)[C@H](Cc1ccccc1)NC(=O)CC1CS(=O)(=O)c2cc(CN)ccc21)C(=O)N[C@@H](CC1CCCCC1)[C@@H](O)CC(=O)NCCCC(=O)O (stereo partly drawn) [Example E37, (6-(Aminomethyl)-2,3-dihydro-1,1-dioxobenzothiophene-3-yl)acetyl-Phe-Leu-ACHPA-NH(CH₂)₃CO₂H .CF₃CO₂H] |
| 32 nM | CC(C)C[C@H](NC(=O)[C@H](Cc1ccccc1)NC(=O)CC1COc2ccc(CN)cc21)C(=O)N[C@@H](CC1CCCCC1)[C@@H](O)CC(=O)NCCCn1ccnc1 (stereo partly drawn) [Example E13, (5-(Aminomethyl)-2,3-dihydrobenzofuran-3-yl)acetyl-Phe-Leu-ACHPA 3-(1-imidazolyl)propylamide .2(CF₃CO₂H).H₂O] |
| 30 nM | COC(=O)CCCCNC(=O)C[C@H](O)[C@H](CC1CCCCC1)NC(=O)[C@H](CC(C)C)NC(=O)[C@H](Cc1ccccc1)NC(=O)CC1CS(=O)(=O)c2ccccc21 (stereo partly drawn) [Example E18, (2,3-Dihydro-1,1-dioxobenzothiophene-3-yl)acetyl-Phe-Leu-ACHPA-NH(CH₂)CO₂Me.0.5H₂O] |
| 27 nM | CC(C)C[C@H](NC(=O)[C@H](Cc1ccccc1)NC(=O)CC1CS(=O)(=O)c2ccccc21)C(=O)N[C@@H](CC1CCCCC1)[C@@H](O)CC(=O)NCCCN1CCCC1=O (stereo partly drawn) [Example E3, (2,3-Dihydro-1,1-dioxobenzothiophene-3-yl)acetyl-Phe-Leu-ACHPA 3-(2-oxopyrrolidin-1-yl) propylamide] |
| 20 nM | CC(C)C[C@H](NC(=O)[C@H](Cc1ccccc1)NC(=O)CC1CS(=O)(=O)c2cc(CN)ccc21)C(=O)N[C@@H](CC1CCCCC1)[C@@H](O)CC(=O)NCCCn1ccnc1 (stereo partly drawn) [Example E52, (6-(Aminomethyl)-2,3-dihydro-1,1-dioxobenzothiophene-3-yl)acetyl-Phe-Leu-ACHPA 3-(1-imidazolyl)propylamide .3(CF₃CO₂H)] |
| 15 nM | CC(C)C[C@H](NC(=O)[C@H](Cc1ccccc1)NC(=O)CC1CS(=O)(=O)c2ccccc21)C(=O)N[C@@H](CC1CCCCC1)[C@@H](O)CC(=O)NCCCn1ccnc1 (stereo partly drawn) [El (a), (2,3-Dihydro-1,1-dioxobenzothiophene-3-yl)acetyl-Phe-Leu-ACHPA 3-(1-imidazolyl)propylamide .H₂O] |
| 14 nM | CC(C)C[C@H](NC(=O)[C@H](Cc1ccccc1)NC(=O)CCCC1Cc2ccccc2S1(=O)=O)C(=O)N[C@@H](CC1CCCCC1)[C@@H](O)CC(=O)NCCCn1ccnc1 (stereo partly drawn) [Example E50a, 4-(2,3-Dihydro-1,1-dioxobenzothiophene-2-yl)butanoyl-Phe-Leu-ACHPA 3-(1-imidazolyl)propylamide] |
| 12 nM | CC(C)C[C@H](NC(=O)[C@H](Cc1ccccc1)NC(=O)CCCC1Cc2ccc(N)cc2S1(=O)=O)C(=O)N[C@@H](CC1CCCCC1)[C@@H](O)CC(=O)NCCCn1ccnc1 (stereo partly drawn) [Example E34a, 4-(6-Amino-2,3-dihydro-1,1-dioxobenzothiophene-2-yl)butanoyl-Phe-Leu-ACHPA 3-(1-imidazolyl)propylamide] |
| 12 nM | CC(C)C[C@H](NC(=O)[C@H](Cc1ccccc1)NC(=O)CC1CS(=O)(=O)c2ccc(CN)cc21)C(=O)N[C@@H](CC1CCCCC1)[C@@H](O)CC(=O)NCCCn1ccnc1 (stereo partly drawn) [Example E43, (5-(Aminomethyl)-2,3-dihydro-1,1-dioxobenzothiophene-3-yl)acetyl-Phe-Leu-ACHPA 3-(1-imidazolyl)propylamide .3CF₃CO₂H.H₂O] |

Same assay, conditions: read-out: IC₅₀; human plasma from healthy volunteers; angiotensin I difference between 37° and 4° incubation for 2h; linear regression of at least three concentrations

| Compound | IC50 |
| --- | --- |
| CC(C)C[C@H](NC(=O)[C@H](Cc1ccccc1)NC(=O)CC1CS(=O)(=O)c2cc(CNC(=O)OC(C)(C)C)ccc21)C(=O)N[C@@H](CC1CCCCC1)[C@@H](O)CC(=O)NCCCn1ccnc1 (stereo partly shown) [Example E51] | 53 nM |
